Literature values as cited in patent US6503927B1, “Amorphous paroxetine composition” (Pentech Pharmaceuticals, Inc., priority 1999, dated 2003).
Structures can show the parent of a compound that is named as a salt.

Settings: reported in U.S. Pat. No. 4,721,723 (Barnes et al.) and U.S. Pat. No. 5,672,612 (Ronsen et al.)

- hygroscopicity of the solid: undesirably hygroscopic
SMILES: Fc1ccc([C@@H]2CCNC[C@H]2COc2ccc3c(c2)OCO3)cc1 [amorphous, paroxetine hydrochloride, paroxetine hydrochloride]
